Consider 27 compounds from US10766869B2, “Triazoles for the treatment of demyelinating dieases” (Vertex Pharmaceuticals Incorporated, priority 2015, dated 2020).

The subject of this experiment is primary rat mixed cortical cells. Nature of the experiment: In vitro myelination assay (MBP positive myelin strands, fold myelin pixels above background). The following applies: Rattus norvegicus; for fold induction at 1 µM: 1.0 μM compound; for fold induction at 10 µM: 10.0 μM compound. It counts as cell-based. Put shortly:
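P1 rat mixed cortical cultures (neurons, OPCs, oligodendrocytes, astrocytes, microglia) grown 14 days at 37 °C with compound, half-medium refreshed with compound on days 6 and 10. Fixed cells stained for MBP; MBP-positive myelin strand pixels per well quantified by automated imaging, reported as fold over no-compound baseline at 1.0 and 10.0 μM.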

Where [1] appears, read: relative to baseline of no added compound, read-out: Fold myelin pixels above background, 1.0 μM.
Where [2] appears, read: relative to baseline of no added compound, read-out: Fold myelin pixels above background, 10.0 μM.
The mark [3] stands for this setting: relative to baseline of no added compound, read-out: Fold myelin pixels above background.
[4] abbreviates: read-out: Fold myelin pixels above background relative to baseline of no added compound.

Read-outs that look alike come from different tables or passages of the source.

For `Cc1cc(Nc2ncn(-c3cc(F)cc(F)c3)n2)cc(O[C@@H]2CCN(C3COC3)C2)c1` [Compound 178, 1-(3,5-difluorophenyl)-N-[3-methyl-5-[(3R)-1-(oxetan-3-yl)pyrrolidin-3-yl]oxy-phenyl]-1,2,4-triazol-3-amine], the fold induction at 1 µM under setting [1] was in the range of 1000 to 10000. Besides, under setting [2], the fold induction at 10 µM was 1 to 10.
For `Cc1cc(Nc2ncn(-c3cc(F)cc(F)c3)n2)cc(N2CCOC3(CCC3)C2)c1` [Compound 543, 1-(3,5-difluorophenyl)-N-[3-methyl-5-(9-oxa-6-azaspiro[3.5]nonan-6-yl)phenyl]-1,2,4-triazol-3-amine], under setting [3], the fold induction at 1 µM is 1 to 10 and the fold induction at 10 µM fell in the range of 1 to 10.
For the compound `COCCC1CCN(c2cc(C)cc(Nc3ncn(-c4ccccc4)n3)c2)CC1` [Compound 148, N-[3-[4-(2-methoxyethyl)-1-piperidyl]-5-methyl-phenyl]-1-phenyl-1,2,4-triazol-3-amine], under setting [1], the fold induction at 1 µM is 100 to 1000. Besides, under setting [2], the fold induction at 10 µM fell in the range of 100 to 1000.
Turning to `Cc1cc(Nc2ncn(-c3cc(F)cc(F)c3)n2)cc(NC2CCOC3(CCOC3)C2)c1` (stereo not drawn) [Compound 1048, N3-[1-(3,5-difluorophenyl)-1,2,4-triazol-3-yl]-N1-(2,6-dioxaspiro[4.5]decan-9-yl)-5-methyl-benzene-1,3-diamine], under setting [4], the fold induction at 1 µM is 10 to 100 and the fold induction at 10 µM was at most 1.
For the compound `Fc1ccc(-n2cnc(Nc3cc(C4CC4)nc(N4CC[C@H](F)C4)c3)n2)cc1F` [Compound 492, 2-cyclopropyl-N-[1-(3,4-difluorophenyl)-1,2,4-triazol-3-yl]-6-[(3S)-3-fluoropyrrolidin-1-yl]pyridin-4-amine], under setting [3], the fold induction at 1 µM was 1000 to 10000 and the fold induction at 10 µM lay within 1000 to 10000.
With `Cc1cc(Nc2ncn(-c3cc(F)cc(F)c3)n2)cc(N2CC(C)(C#N)C2)c1` [Compound 1076, 1-[3-[[1-(3,5-difluorophenyl)-1,2,4-triazol-3-yl]amino]-5-methyl-phenyl]-3-methyl-azetidine-3-carbonitrile], under setting [4], the fold induction at 1 µM is 10 to 100 and the fold induction at 10 µM is at most 1.
The matching figures for `CNC(=O)c1cc(Nc2ncn(-c3ccc(F)c(F)c3)n2)nc(N2CCN(C3COC3)CC2)c1` [Compound 789, 2-[[1-(3,4-difluorophenyl)-1,2,4-triazol-3-yl]amino]-N-methyl-6-[4-(oxetan-3-yl)piperazin-1-yl]pyridine-4-carboxamide]: 1 to 10 and at most 1.
On to `Clc1cc(Nc2ncn(-c3ccccn3)n2)cc(N2CC(N3CCOCC3)C2)c1` [Compound 785, N-[3-chloro-5-(3-morpholinoazetidin-1-yl)phenyl]-1-(2-pyridyl)-1,2,4-triazol-3-amine], for which, under setting [3], the fold induction at 1 µM was 10 to 100 and the fold induction at 10 µM was 100 to 1000.
On to `Cc1c(Nc2ncn(-c3ccccn3)n2)cc(N2CC(N3CCOCC3)C2)cc1OC(C)C` [Compound 811, N-[3-isopropoxy-2-methyl-5-(3-morpholinoazetidin-1-yl)phenyl]-1-(2-pyridyl)-1,2,4-triazol-3-amine], for which, under setting [4], the fold induction at 1 µM is 1 to 10 and the fold induction at 10 µM was 10 to 100.
With `Cc1cc(Nc2ncn(-c3cc(F)cc(F)c3)n2)cc(N2CC(N3CCCCC3)C2)c1` [Compound 634, 1-(3,5-difluorophenyl)-N-[3-methyl-5-[3-(1-piperidyl)azetidin-1-yl]phenyl]-1,2,4-triazol-3-amine], under setting [3], the fold induction at 1 µM is 10 to 100 and the fold induction at 10 µM was 10 to 100.
Turning to `Cc1cc(Nc2ncn(-c3ccc(F)c(F)c3)n2)cc(C2CN(C3COC3)C2)c1` [Compound 301, 1-(3,4-difluorophenyl)-N-[3-methyl-5-[1-(oxetan-3-yl)azetidin-3-yl]phenyl]-1,2,4-triazol-3-amine], the fold induction at 1 µM under setting [1] lay within 1000 to 10000. Besides, the fold induction at 10 µM under setting [2] was in the range of 100 to 1000.
The matching figures for `CCOC(=O)N1CCN(c2cc(C)cc(Nc3ncn(-c4cc(F)cc(F)c4)n3)c2)CC1` [Compound 196, ethyl 4-[3-[[1-(3,5-difluorophenyl)-1,2,4-triazol-3-yl]amino]-5-methyl-phenyl]piperazine-1-carboxylate]: at most 1 and at most 1.
With `Cc1cc(Nc2ncn(-c3cc(F)cc(F)n3)n2)cc(N2CCN(C3COC3)CC2)c1` [Compound 329, 1-(4,6-difluoro-2-pyridyl)-N-[3-methyl-5-[4-(oxetan-3-yl)piperazin-1-yl]phenyl]-1,2,4-triazol-3-amine], the fold induction at 1 µM under setting [1] fell in the range of 1 to 10. Moreover, the fold induction at 10 µM under setting [2] was in the range of 10 to 100.
As for `Cc1cc(Nc2ncn(-c3cc(F)cc(F)c3)n2)cc(N2CCC(OC3CCOC3)CC2)c1` (stereo not drawn) [Compound 1014, 1-(3,5-difluorophenyl)-N-[3-methyl-5-(4-tetrahydrofuran-3-yloxy-1-piperidyl)phenyl]-1,2,4-triazol-3-amine], under setting [4], the fold induction at 1 µM was in the range of 1 to 10 and the fold induction at 10 µM was in the range of 1 to 10.
On to `Cc1cc(-n2cnc(Nc3cc(C4CC4)cc(N4CCN(C5COC5)CC4)c3)n2)ncn1` [Compound 302, N-[3-cyclopropyl-5-[4-(oxetan-3-yl)piperazin-1-yl]phenyl]-1-(6-methylpyrimidin-4-yl)-1,2,4-triazol-3-amine], for which the fold induction at 1 µM under setting [1] fell in the range of 1000 to 10000. For the same compound, under setting [2], the fold induction at 10 µM was in the range of 1000 to 10000.
For `Cc1cc(Nc2ncn(-c3cc(F)cc(F)c3)n2)cc(N2CCN(CC(F)(F)F)CC2)c1` [Compound 421, 1-(3,5-difluorophenyl)-N-[3-methyl-5-[4-(2,2,2-trifluoroethyl)piperazin-1-yl]phenyl]-1,2,4-triazol-3-amine], under setting [3], the fold induction at 1 µM lay in the range of 100 to 1000 and the fold induction at 10 µM was in the range of 100 to 1000.
In the case of `Cc1cc(Nc2ncn(-c3ccccc3)n2)cc(N2C[C@H]3CCN(C)[C@H]3C2)c1` [Compound 369, N-[3-[(3aR,6aR)-1-methyl-2,3,3a,4,6,6a-hexahydropyrrolo[2,3-c]pyrrol-5-yl]-5-methyl-phenyl]-l-phenyl-1,2,4-triazol-3-amine], the fold induction at 1 µM under setting [1] is 1000 to 10000. The fold induction at 10 µM under setting [2] was at most 1.
`Fc1ccccc1-n1cnc(Nc2cc(C3CC3)cc(N3CCN(C4COC4)CC3)c2)n1` [Compound 225, N-[3-cyclopropyl-5-[4-(oxetan-3-yl)piperazin-1-yl]phenyl]-1-(2-fluorophenyl)-1,2,4-triazol-3-amine]: the fold induction at 1 µM under setting [1] was 100 to 1000. Under setting [2], the fold induction at 10 µM lay in the range of 100 to 1000.
With `Cc1cc(Nc2ncn(-c3cncc(Cl)c3)n2)cc(N2CCN(C)CC2)c1` [Compound 262, 1-(5-chloro-3-pyridyl)-N-[3-methyl-5-(4-methylpiperazin-1-yl)phenyl]-1,2,4-triazol-3-amine], the fold induction at 1 µM under setting [1] fell in the range of 10 to 100. Besides, the fold induction at 10 µM under setting [2] was in the range of 100 to 1000.
The matching figures for `CCC1CCCN1c1cc(F)cc(-n2cnc(Nc3cc(C)cc(N4CCN(C5COC5)CC4)c3)n2)c1` (stereo not drawn) [Compound 103, 1-[3-(2-ethylpyrrolidin-1-yl)-5-fluoro-phenyl]-N-[3-methyl-5-[4-(oxetan-3-yl)piperazin-1-yl]phenyl]-1,2,4-triazol-3-amine]: 100 to 1000 and at most 1.
In the case of `[2H]C1([2H])N(c2cc(Nc3ncn(-c4cc(F)cc(F)c4)n3)cc(C(F)(F)F)c2)C([2H])([2H])C([2H])([2H])C([2H])([2H])C1([2H])[2H]` [Compound 1032, N-[3-(2,2,3,3,4,4,5,5,6,6-decadeuterio-1-piperidyl)-5-(trifluoromethyl)phenyl]-1-(3,5-difluorophenyl)-1,2,4-triazol-3-amine], under setting [4], the fold induction at 1 µM lay within 10 to 100 and the fold induction at 10 µM lay in the range of 1 to 10.
Regarding `Cc1cc(Nc2ncn(-c3cc(F)cc(F)c3)n2)cc(N2CC(F)(CO)C2)c1` [Compound 1079, [1-[3-[[1-(3,5-difluorophenyl)-1,2,4-triazol-3-yl]amino]-5-methyl-phenyl]-3-fluoro-azetidin-3-yl]methanol], under setting [4], the fold induction at 1 µM was in the range of 10 to 100 and the fold induction at 10 µM was at most 1.
Consider `Cc1cc(Nc2ncn(-c3cc(F)cc(F)c3)n2)cc(N2CCN(C)C(CO)C2)c1` (stereo not drawn) [Compound 53, [4-[3-[[1-(3,5-difluorophenyl)-1,2,4-triazol-3-yl]amino]-5-methyl-phenyl]-1-methyl-piperazin-2-yl]methanol], for which the fold induction at 1 µM under setting [1] was in the range of 10 to 100. Also, the fold induction at 10 µM under setting [2] was at most 1.
As to `Cc1cc(Nc2ncn(-c3cc(F)cc(F)c3)n2)c(F)c(OC2CCOC2)c1` (stereo not drawn) [Compound 856, 1-(3,5-difluorophenyl)-N-(2-fluoro-5-methyl-3-tetrahydrofuran-3-yloxy-phenyl)-1,2,4-triazol-3-amine], under setting [4], the fold induction at 1 µM was 10 to 100 and the fold induction at 10 µM was at most 1.
For `Cc1cc(Nc2ncn(-c3cccc(F)c3)n2)cc(N2CCN(C3(C)COC3)CC2)c1` [Compound 375, 1-(3-fluorophenyl)-N-[3-methyl-5-[4-(3-methyloxetan-3-yl)piperazin-1-yl]phenyl]-1,2,4-triazol-3-amine], under setting [1], the fold induction at 1 µM lay within 1000 to 10000. For the same compound, the fold induction at 10 µM under setting [2] lay in the range of 10 to 100.
For `Cc1cc(Nc2ncn(-c3cccc(C(F)(F)F)c3)n2)cc(N2CC(N3CCOCC3)C2)c1` [Compound 651, N-[3-methyl-5-(3-morpholinoazetidin-1-yl)phenyl]-1-[3-(trifluoromethyl)phenyl]-1,2,4-triazol-3-amine], under setting [3], the fold induction at 1 µM was in the range of 10 to 100 and the fold induction at 10 µM lay in the range of 1 to 10.
Consider `CCc1cc(F)cc(-n2cnc(Nc3cc(C)cc(N4CCN(C5COC5)CC4)c3)n2)c1` [Compound 206, 1-(3-ethyl-5-fluoro-phenyl)-N-[3-methyl-5-[4-(oxetan-3-yl)piperazin-1-yl]phenyl]-1,2,4-triazol-3-amine], for which the fold induction at 1 µM under setting [1] lay within 100 to 1000. The fold induction at 10 µM under setting [2] lay within 100 to 1000.
